From patent publication US8586588B2, “Aryl pyridazinone derivatives and their use as H3 receptor ligands” (Cephalon, Inc., priority 2006, dated 2013) come the findings set out here.

In one assay the target is T1, human H3 receptor (Homo sapiens, UniProt Q9Y5N1).
T1 construct: expressed in transfected cells
Briefly: Human H3 radioligand binding ([3H]-N-alpha-methylhistamine, CHO cell membranes, SPA). Particulars: Table A, binding constant as letter class. Here is the method: (§1) Cell pellets were resuspended in 5 mM Tris-HCl, pH 7.5 with […] and a cocktail of protease inhibitors (Complete Protease Inhibition Tablets, Roche Diagnostics). Cells were disrupted using a polytron cell homogenizer and the suspension was centrifuged at 1000×g for 10 minutes at 4° C. The pellet was discarded and the supernatant centrifuged at 40,000×g for 30 min at 4° C. This membrane pellet was washed in membrane buffer containing 50 mM Tris-HCl, pH 7.5 with 0.6 mM EDTA, 5 mM MgCl2 and protease inhibitors, recentrifuged as above and the final pellet resuspended in membrane buffer plus 250 mM sucrose and frozen at −80° C.
(§2) Membranes were resuspended in 50 mM Tris HCl (pH 7.4), 5 mM MgCl2, 0.1% BSA. The membrane suspensions (10 μg protein per well) were incubated in a 96 well microtiter plate with [^3H]-N-alpha-methylhistamine (approximately 1 nM final concentration), test compounds at various concentrations (0.01 nM-30 μM) and scintillation proximity beads (Perkin Elmer, FlashBlueGPCR Scintillating Beads) in a final volume of 80 μl for 4 hours at room temperature, protected from light. Non-specific binding was determined in the presence of 10 μM clobenpropit. Radioligand bound to receptor, and therefore in proximity to the scintillation beads, was measured using a MicroBeta scintillation counter.

Assay [1] concerns the target T2, rat histamine H3 receptor (Rattus norvegicus, UniProt Q9QYN8).
T2 construct: encoding the entire 445-amino-acid rat histamine H3 receptor; expressed in transfected cells
Briefly: Rat H3 radioligand binding ([3H]-N-alpha-methylhistamine, CHO-A3 cell membranes, SPA). Particulars: Table A, binding constant as letter class; read-out: Rat H3 Ki. Here is the method:
as §1, with “This was engineered into the pIRES-neo3 mammalian expression vector, which was stably transfected into the CHO-A3 cell line (Euroscreen, Belgium), followed by clonal selection by limiting dilution. Cells were harvested and cell pellets were frozen (−80° C.). Cell pellets” for “Cell pellets”
as §2

T1 sequence (Q9Y5N1 whole entry): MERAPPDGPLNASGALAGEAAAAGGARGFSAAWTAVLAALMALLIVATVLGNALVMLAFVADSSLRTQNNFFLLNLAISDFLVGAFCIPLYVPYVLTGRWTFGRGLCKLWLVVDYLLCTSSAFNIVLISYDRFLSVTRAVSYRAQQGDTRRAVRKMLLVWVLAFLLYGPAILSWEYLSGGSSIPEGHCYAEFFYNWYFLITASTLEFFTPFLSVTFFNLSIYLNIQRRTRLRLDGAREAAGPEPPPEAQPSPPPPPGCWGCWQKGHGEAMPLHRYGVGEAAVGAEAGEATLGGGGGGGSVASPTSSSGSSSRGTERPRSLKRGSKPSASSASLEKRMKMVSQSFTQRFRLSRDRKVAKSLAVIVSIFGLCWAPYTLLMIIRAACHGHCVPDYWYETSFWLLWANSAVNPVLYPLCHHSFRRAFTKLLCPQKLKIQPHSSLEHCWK
T2 sequence (Q9QYN8 whole entry): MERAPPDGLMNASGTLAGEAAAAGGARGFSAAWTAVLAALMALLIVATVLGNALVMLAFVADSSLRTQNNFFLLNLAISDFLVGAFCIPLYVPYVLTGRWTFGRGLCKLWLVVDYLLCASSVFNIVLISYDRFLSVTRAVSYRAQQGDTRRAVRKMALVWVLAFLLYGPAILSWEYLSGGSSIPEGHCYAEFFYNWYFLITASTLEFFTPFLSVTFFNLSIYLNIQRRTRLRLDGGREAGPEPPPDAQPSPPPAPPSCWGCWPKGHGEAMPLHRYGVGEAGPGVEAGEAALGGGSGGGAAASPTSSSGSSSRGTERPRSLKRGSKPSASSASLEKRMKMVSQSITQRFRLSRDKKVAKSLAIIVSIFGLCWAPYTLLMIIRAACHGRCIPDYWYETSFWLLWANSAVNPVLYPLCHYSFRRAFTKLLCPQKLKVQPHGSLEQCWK

One may read the Ki as the equilibrium dissociation constant of an inhibitor or competing ligand from its target. For the compound `CC(C)n1nc(-c2ccc(OCCCN3[C@H](C)CC[C@H]3C)cc2)c2sccc2c1=O` [Example 31, 7-{4-[3-((2R,5R)-2,5-Dimethyl-pyrrolidin-1-yl)-propoxy]-phenyl}-5-isopropyl-5H-thieno[2,3-d]pyridazin-4-one], the Ki lay in the range of 0.1 to 100 nM on human H3 receptor and 101 to 500 nM in assay [1].

On to `CCCn1nc(-c2ccc(OCCCN3CCC[C@H]3C)cc2)c2sccc2c1=O` [Example 32, 7-{4-[3-((R)-2-Methyl-pyrrolidin-1-yl)-propoxy]phenyl}-5-propyl-5H-thieno[2,3-d]pyridazin-4-one], for which the Ki (on human H3 receptor; in assay [1]) was 0.1 to 100 nM in each case.

Turning to `CCCn1nc(-c2ccc(OCCCN3[C@H](C)CC[C@H]3C)cc2)c2sccc2c1=O` [Example 33, 7-{4-[3-((2R,5R)-2,5-Dimethyl-pyrrolidin-1-yl)-propoxy]-phenyl)-5-propyl-5H-thieno[2,3-d]pyridazin-4-one], the Ki lay in the range of 0.1 to 100 nM on human H3 receptor and 101 to 500 nM in assay [1].

Consider `CCCn1nc(-c2ccc(OCCCN3CCC(C)CC3)cc2)c2sccc2c1=O` [Example 34, 7-{4-[3-(4-Methyl-piperidin-1-yl)-propoxy]-phenyl}-5-propyl-5H-thieno[2,3-d]pyridazin-4-one], for which the Ki (on human H3 receptor; in assay [1]) was 0.1 to 100 nM each time.

Regarding `CCCn1nc(-c2ccc(OCCCN3CCC(N(C)C)CC3)cc2)c2sccc2c1=O` [Example 35, 7-{4-[3-(4-Dimethylamino-piperidin-1-yl)-propoxy]-phenyl}-5-propyl-5H-thieno[2,3-d]pyridazin-4-one], the Ki (at human H3 receptor; in assay [1]) was 101 to 500 nM in each case.

On to `CCCn1nc(-c2ccc(OCCCN3CCC[C@H]3CN3CCCC3)cc2)c2sccc2c1=O` [Example 36, 5-Propyl-7-{4-[3-((S)-2-pyrrolidin-1-ylmethyl-pyrrolidin-1-yl)-propoxy]-phenyl}-5H-thieno[2,3-d]pyridazin-4-one], for which the Ki on human H3 receptor was 101 to 500 nM; in assay [1] it was more than 1000 nM.

Turning to `O=c1c2ccsc2c(-c2ccc(OCCCN3CCCCC3)cc2)nn1Cc1ccc(Cl)cc1` [Example 37, 5-(4-Chloro-benzyl)-7-[4-(3-piperidin-1-yl-propoxy)-phenyl]-5H-thieno[2,3-d]pyridazin-4-one], the Ki was in the range of 0.1 to 100 nM on human H3 receptor and 101 to 500 nM in assay [1].

Consider `C[C@@H]1CCCN1CCCOc1ccc(-c2nn(Cc3ccc(Cl)cc3)c(=O)c3ccsc23)cc1` [Example 38, 5-(4-Chloro-benzyl)-7-{4-[3-((R)-2-methyl-pyrrolidin-1-yl)-propoxy]-phenyl}-5H-thieno[2,3-d]pyridazin-4-one], for which the inhibition constant (Ki) (at human H3 receptor; in assay [1]) was 0.1 to 100 nM throughout.

`Cc1cc(-c2ccc(OCCCN3CCCCC3)cc2)nn(C)c1=O` [Example 39, 2,4-Dimethyl-6-[4-(3-piperidin-1-yl-propoxy)-phenyl]-2H-pyridazin-3-one]: the Ki (at human H3 receptor; in assay [1]) was 0.1 to 100 nM throughout.

Take `Cc1cc(-c2ccc(OCCCN3CCC[C@H]3C)cc2)nn(C)c1=O` [Example 40, 2,4-Dimethyl-6-{4-[3-((R)-2-methyl-pyrrolidin-1-yl)-propoxy]-phenyl}-2H-pyridazin-3-one]: the Ki (at human H3 receptor; in assay [1]) was 0.1 to 100 nM throughout.

For the compound `Cc1cc(-c2ccc(OCCCN3CCC[C@H]3C)cc2)nn(C(C)C)c1=O` [Example 41, 2-Isopropyl-4-methyl-6-{4-[3-((R)-2-methyl-pyrrolidin-1-yl)-propoxy]-phenyl}-2H-pyridazin-3-one], the Ki (at human H3 receptor; in assay [1]) was 0.1 to 100 nM throughout.

On to `Cc1cc(-c2ccc(OCCCN3CCCCC3)cc2)nn(C(C)C)c1=O` [Example 42, 2-Isopropyl-4-methyl-6-[4-(3-piperidin-1-yl-propoxy)-phenyl]-2H-pyridazin-3-one], for which the Ki (on human H3 receptor; in assay [1]) was 101 to 500 nM in each case.

Turning to `Cc1cc(-c2ccc(OCCCN3CCC[C@H]3C)cc2)nn(Cc2ccccc2)c1=O` [Example 43, 2-Benzyl-4-methyl-6-{4-[3-((R)-2-methyl-pyrrolidin-1-yl)-propoxy]-phenyl}-2H-pyridazin-3-one], the Ki (on human H3 receptor; in assay [1]) was 0.1 to 100 nM in each case.

In the case of `Cc1cc(-c2ccc(OCCCN3CCCCC3)cc2)nn(Cc2ccccc2)c1=O` [Example 44, 2-Benzyl-4-methyl-6-[4-(3-piperidin-1-yl-propoxy)-phenyl]-2H-pyridazin-3-one], the values for the Ki (on human H3 receptor; in assay [1]) were 0.1 to 100 nM and 101 to 500 nM, respectively.

In the case of `C[C@@H]1CCCN1CCCOc1ccc(-c2cc(Cc3ccccc3)c(=O)n(C)n2)cc1` [Example 45, 4-Benzyl-2-methyl-6-{4-[3-((R)-2-methyl-pyrrolidin-1-yl)-propoxy]-phenyl}-2H-pyridazin-3-one], the Ki (at human H3 receptor; in assay [1]) was 0.1 to 100 nM throughout.

Regarding `Cn1nc(-c2ccc(OCCCN3CCCCC3)cc2)cc(Cc2ccccc2)c1=O` [Example 46, 4-Benzyl-2-methyl-6-[4-(3-piperidin-1-yl-propoxy)-phenyl]-2H-pyridazin-3-one], the Ki at human H3 receptor is 0.1 to 100 nM; in assay [1], 101 to 500 nM.

For the compound `C[C@@H]1CCCN1CCCOc1ccc(-c2nn(C)c(=O)cc2-c2ccccc2)cc1` [Example 47, 2-Methyl-6-{4-[3-((R)-2-methyl-pyrrolidin-1-yl)-propoxy]-phenyl}-5-phenyl-2H-pyridazin-3-one], the Ki (on human H3 receptor; in assay [1]) was 0.1 to 100 nM in each case.

As to `Cn1nc(-c2ccc(OCCCN3CCCCC3)cc2)c(-c2ccccc2)cc1=O` [Example 48, 2-Methyl-5-phenyl-6-[4-(3-piperidin-1-yl-propoxy)-phenyl]-2H-pyridazin-3-one], the Ki (on human H3 receptor; in assay [1]) was 0.1 to 100 nM each time.

Take `C[C@@H]1CCCN1CCCOc1ccc(-c2nn(C)c(=O)c3ccccc23)cc1` [Example 49, 2-Methyl-4-{4-[3-((R)-2-methyl-pyrrolidin-1-yl)-propoxy]-phenyl}-2H-phthalazin-1-one]: the inhibitory constant (Ki) (at human H3 receptor; in assay [1]) was 0.1 to 100 nM throughout.

Turning to `Cn1nc(-c2ccc(OCCCN3CCCCC3)cc2)c2ccccc2c1=O` [Example 50, 2-Methyl-4-[4-(3-piperidin-1-yl-propoxy)-phenyl]-2H-phthalazin-1-one], the Ki (at human H3 receptor; in assay [1]) was 0.1 to 100 nM throughout.

As to `Cn1nc(-c2ccc(OCCN3CCCCC3)cc2)c2ccccc2c1=O` [Example 51, 2-Methyl-4-[4-(2-piperidin-1-yl-ethoxy)-phenyl]-2H-phthalazin-1-one], the Ki on human H3 receptor is 0.1 to 100 nM; in assay [1], more than 1000 nM.

With `Cn1nc(-c2ccc(OCCCN3CCCC3)cc2)c2ccccc2c1=O` [Example 52, 2-Methyl-4-[4-(3-pyrrolidin-1-yl-propoxy)-phenyl]-2H-phthalazin-1-one], the Ki (on human H3 receptor; in assay [1]) was 0.1 to 100 nM each time.

With `Cn1nc(-c2ccc(OCCCN3CCCCCC3)cc2)c2ccccc2c1=O` [Example 53, 4-[4-(3-Azepan-1-yl-propoxy)-phenyl]-2-methyl-2H-phthalazin-1-one], the Ki (at human H3 receptor; in assay [1]) was 0.1 to 100 nM in each case.

With `C[C@@H]1CCCN1CCCOc1ccc(-c2nn(Cc3ccc(Cl)cc3)c(=O)c3ccccc23)cc1` [Example 54, 2-(4-Chloro-benzyl)-4-{4-[3-((R)-2-methyl-pyrrolidin-1-yl)-propoxy]-phenyl}-2H-phthalazin-1-one], the Ki (on human H3 receptor; in assay [1]) was 0.1 to 100 nM throughout.

As to `O=c1c2ccccc2c(-c2ccc(OCCCN3CCCCC3)cc2)nn1Cc1ccc(Cl)cc1` [Example 55, 2-(4-Chloro-benzyl)-4-[4-(3-piperidin-1-yl-propoxy)-phenyl]-2H-phthalazin-1-one], the Ki (on human H3 receptor; in assay [1]) was 0.1 to 100 nM throughout.

As to `C[C@@H]1CCCN1CCCOc1ccc(-c2nn(C)c(=O)c3c2CCC3)cc1` [Example 56, 2-Methyl-4-{4-[3-((R)-2-methyl-pyrrolidin-1-yl)-propoxy]-phenyl}-2,5,6,7-tetrahydro-cyclopenta[d]pyridazin-1-one], the Ki (at human H3 receptor; in assay [1]) was 0.1 to 100 nM each time.

In the case of `Cn1nc(-c2ccc(OCCCN3CCCCC3)cc2)c2c(c1=O)CCC2` [Example 57, 2-Methyl-4-[4-(3-piperidin-1-yl-propoxy)-phenyl]-2,5,6,7-tetrahydro-cyclopenta[d]pyridazin-1-one], the Ki (on human H3 receptor; in assay [1]) was 0.1 to 100 nM in each case.

Turning to `C[C@@H]1CCCN1CCCOc1ccc(C2=NN(C)C(=O)C3CCCC23)cc1` (stereo partly drawn) [Example 58, 2-Methyl-4-{4-[3-((R)-2-methyl-pyrrolidin-1-yl)-propoxy]-phenyl}-2,4a,5,6,7,7a-hexahydro-cyclopenta[d]pyridazin-1-one], the Ki (on human H3 receptor; in assay [1]) was 0.1 to 100 nM throughout.
